From patent US4409210A, “Antibiotic compound” (priority 1982, dated 1983)
Converted amounts (≈) assume the structure as drawn. *1 amine or outer side, *2 acyl side, *3 side chain or, on linkers, in order; H or OH if unused. Where a SMILES comes first, the peptide text is derived from it. Bridges are numbered along the chain shown (N, C = ends). [ ]: non-standard residue; d: D form. ξ: configuration not given here. X2 = CCCCCCCCCCCC(CC(=O)[*:1])O[*:2]; ξAsp(3ξ-OH) = NC(C(=O)O)C(O)C(=O)O; X1 = O=C(C1C(O)CCN1[*:1])[*:2]

Tests used:
Assay type in all cases: cell-based
[1] = test system: Staphylococcus aureus #193; experiment: MIC, serial two-fold dilution method (aerobic); conditions: Staphylococcus aureus #193, Mueller-Hinton agar, inoculum 10^4
[2] = test system: Staphylococcus aureus BX-1633; experiment: MIC, serial two-fold dilution method (aerobic); conditions: Staphylococcus aureus BX-1633, Mueller-Hinton agar, inoculum 10^4
[3] = test system: Staphylococcus aureus A9748; experiment: MIC, serial two-fold dilution method (aerobic); conditions: Staphylococcus aureus A9748, Mueller-Hinton agar, inoculum 10^4
[4] = test system: Staphylococcus aureus A9856; experiment: MIC, serial two-fold dilution method (aerobic); conditions: Staphylococcus aureus A9856, Mueller-Hinton agar, inoculum 10^4
[5] = test system: Staphylococcus aureus A22421; experiment: MIC, serial two-fold dilution method (aerobic); conditions: Staphylococcus aureus A22421, Mueller-Hinton agar, inoculum 10^4
[6] = test system: Sarcina lutea PCI-1001; experiment: MIC, serial two-fold dilution method (aerobic); conditions: Sarcina lutea PCI-1001, Mueller-Hinton agar, inoculum 10^4
[7] = test system: Bacillus subtilis ATCC 6633; experiment: MIC, serial two-fold dilution method (aerobic); conditions: Bacillus subtilis ATCC 6633, Mueller-Hinton agar, inoculum 10^4
[8] = test system: Proteus mirabilis A9554; experiment: MIC, serial two-fold dilution method (aerobic); conditions: Proteus mirabilis A9554, Mueller-Hinton agar, inoculum 10^4
[9] = test system: Proteus vulgaris A9436; experiment: MIC, serial two-fold dilution method (aerobic); conditions: Proteus vulgaris A9436, Mueller-Hinton agar, inoculum 10^4
[10] = test system: Clostridium chauvoei A9561; experiment: MIC, serial two-fold dilution method (anaerobic); conditions: Clostridium chauvoei A9561, GAM agar medium, inoculum 10^7-10^8
Method: (§1) The minimum inhibitory concentration (MIC) of Bu-2517 was determined for a variety of aerobic and anaerobic bacteria by the serial two-fold dilution method using a multi-inoculating apparatus. Mueller-Hinton agar was generally used for aerobic bacteria, GC medium (Eiken) for fastidious aerobic organisms such as streptococci, Neisseria and Haemophilus species, and GAM agar medium (Nissui) for anaerobic bacteria. The inoculum size was adjusted to 10^6 CFU/ml for streptococci, Neisseria and Haemophilus species, 10^4 for other aerobic bacteria and 10^7 -10^8 for all anaerobic organisms. Amphomycin, ampicillin, chloramphenicol, clindamycin, erthromycin, kanamycin and vancomycin were used as reference antibiotics.

[11] = test system: Clostridium difficile A21675; experiment: MIC, serial two-fold dilution method (anaerobic); conditions: Clostridium difficile A21675, GAM agar medium, inoculum 10^7-10^8
Method: as §1

[12] = test system: Clostridium difficile A21972; experiment: MIC, serial two-fold dilution method (anaerobic); conditions: Clostridium difficile A21972, GAM agar medium, inoculum 10^7-10^8
Method: as §1

[13] = test system: Clostridium septicum A21869; experiment: MIC, serial two-fold dilution method (anaerobic); conditions: Clostridium septicum A21869, GAM agar medium, inoculum 10^7-10^8
Method: as §1

[14] = test system: Clostridium perfringens A9635; experiment: microbe, parasite or virus in culture
[15] = test system: Clostridium perfringens A22787; experiment: microbe, parasite or virus in culture
[16] = test system: Clostridium ramosum A21970; experiment: MIC, serial two-fold dilution method (anaerobic); conditions: Clostridium ramosum A21970, GAM agar medium, inoculum 10^7-10^8
[17] = test system: Peptococcus magnas A21676; experiment: MIC, serial two-fold dilution method (anaerobic); conditions: Peptococcus magnas A21676, GAM agar medium, inoculum 10^7-10^8
[18] = test system: Bacteroides fragilis CUH-9; experiment: MIC, serial two-fold dilution method (anaerobic); conditions: Bacteroides fragilis CUH-9, GAM agar medium, inoculum 10^7-10^8
[19] = test system: Bacteroides fragilis A20926; experiment: MIC, serial two-fold dilution method (anaerobic); conditions: Bacteroides fragilis A20926, GAM agar medium, inoculum 10^7-10^8
[20] = test system: Bacteroides fragilis A21900; experiment: MIC, serial two-fold dilution method (anaerobic); conditions: Bacteroides fragilis A21900, GAM agar medium, inoculum 10^7-10^8
[21] = test system: Bacteroides fragilis A22053; experiment: MIC, serial two-fold dilution method (anaerobic); conditions: Bacteroides fragilis A22053, GAM agar medium, inoculum 10^7-10^8
[22] = test system: Bacteroides fragilis A22695; experiment: MIC, serial two-fold dilution method (anaerobic); conditions: Bacteroides fragilis A22695, GAM agar medium, inoculum 10^7-10^8
[23] = test system: Fusobacterium nucleatum A21906; experiment: MIC, serial two-fold dilution method (anaerobic); conditions: Fusobacterium nucleatum A21906, GAM agar medium, inoculum 10^7-10^8
[24] = test system: Fusobacterium varium ATCC 8501; experiment: MIC, serial two-fold dilution method (anaerobic); conditions: Fusobacterium varium ATCC 8501, GAM agar medium, inoculum 10^7-10^8
[25] = test system: Veillonella alcalescens A21914-1; experiment: MIC, serial two-fold dilution method (anaerobic); conditions: Veillonella alcalescens A21914-1, GAM agar medium, inoculum 10^7-10^8
[26] = test system: Veillonella parvula A20010; experiment: MIC, serial two-fold dilution method (anaerobic); conditions: Veillonella parvula A20010, GAM agar medium, inoculum 10^7-10^8
[27] = read-out: minimum inhibitory concentration (MIC)
[28] = Clostridioides difficile, read-out: minimum inhibitory concentration (MIC)

CCCCCCCCCCCC1CC(=O)N2CCCC2C(=O)NC(CO)C(=O)N2CCCC2C(=O)NC(CCCNC(=N)N)C(=O)NC(C(O)C(=O)O)C(=O)NC(CO)C(=O)N2CCC(O)C2C(=O)NC(C(O)C(=O)O)C(=O)O1 (stereo not shown) [Bu-2517] (PSPR[ξAsp(3ξ-OH)]S[X1][ξAsp(3ξ-OH)]; linker N-C via X2; configuration not given here)
minimum inhibitory concentration (MIC) [1]: 1.6 µg/mL (≈ 1.42 µM)
minimum inhibitory concentration (MIC) [2]: 1.6 µg/mL (≈ 1.42 µM)
minimum inhibitory concentration (MIC) [3]: 1.6 µg/mL (≈ 1.42 µM)
minimum inhibitory concentration (MIC) [4]: 0.8 µg/mL (≈ 0.71 µM)
minimum inhibitory concentration (MIC) [5]: 0.8 µg/mL (≈ 0.71 µM)
minimum inhibitory concentration (MIC) [6]: < 0.05 µg/mL
minimum inhibitory concentration (MIC) [7]: 0.8 µg/mL (≈ 0.71 µM)
minimum inhibitory concentration (MIC) [8]: > 100 µg/mL
minimum inhibitory concentration (MIC) [9]: > 100 µg/mL
minimum inhibitory concentration (MIC) [10]: 3.1 µg/mL (≈ 2.75 µM)
minimum inhibitory concentration (MIC) [11]: 1.6 µg/mL (≈ 1.42 µM)
minimum inhibitory concentration (MIC) [12]: 1.6 µg/mL (≈ 1.42 µM)
minimum inhibitory concentration (MIC) [13]: 1.6 µg/mL (≈ 1.42 µM)
minimum inhibitory concentration (MIC) ([14]; Clostridium perfringens A9635, GAM agar medium, inoculum 10^7-10^8): 1.6 µg/mL (≈ 1.42 µM)
minimum inhibitory concentration (MIC) ([15]; Clostridium perfringens A22787, GAM agar medium, inoculum 10^7-10^8): 3.1 µg/mL (≈ 2.75 µM)
minimum inhibitory concentration (MIC) [16]: 1.6 µg/mL (≈ 1.42 µM)
minimum inhibitory concentration (MIC) [17]: 1.6 µg/mL (≈ 1.42 µM)
minimum inhibitory concentration (MIC) [18]: 100 µg/mL (≈ 88.8 µM)
minimum inhibitory concentration (MIC) [19]: 25 µg/mL (≈ 22.2 µM)
minimum inhibitory concentration (MIC) [20]: 6.3 µg/mL (≈ 5.59 µM)
minimum inhibitory concentration (MIC) [21]: > 100 µg/mL
minimum inhibitory concentration (MIC) [22]: > 100 µg/mL
minimum inhibitory concentration (MIC) [23]: 12.5 µg/mL (≈ 11.1 µM)
minimum inhibitory concentration (MIC) [24]: 50 µg/mL (≈ 44.4 µM)
minimum inhibitory concentration (MIC) [25]: 1.6 µg/mL (≈ 1.42 µM)
minimum inhibitory concentration (MIC) [26]: 1.6 µg/mL (≈ 1.42 µM)

O=C(N[C@H](CO)[C@H](O)c1ccc([N+](=O)[O-])cc1)C(Cl)Cl [Chloramphenicol]
MIC [1, 27]: 3.1 µg/mL (≈ 9.59 µM)
MIC ([2]; BX1633, read-out: minimum inhibitory concentration (MIC)): 6.3 µg/mL (≈ 19.5 µM)
MIC [3, 27]: 6.3 µg/mL (≈ 19.5 µM)
MIC [4, 27]: 3.1 µg/mL (≈ 9.59 µM)
MIC [5, 27]: 6.3 µg/mL (≈ 19.5 µM)
MIC ([6]; Micrococcus luteus, PCI1001, read-out: minimum inhibitory concentration (MIC)): 1.6 µg/mL (≈ 4.95 µM)
MIC ([7]; ATCC6633, read-out: minimum inhibitory concentration (MIC)): 3.1 µg/mL (≈ 9.59 µM)
MIC [8, 27]: 12.5 µg/mL (≈ 38.7 µM)
MIC [9, 27]: 3.1 µg/mL (≈ 9.59 µM)
MIC [10, 27]: 6.3 µg/mL (≈ 19.5 µM)
MIC [11, 28]: 3.1 µg/mL (≈ 9.59 µM)
MIC [12, 28]: 3.1 µg/mL (≈ 9.59 µM)
MIC [13, 27]: 6.3 µg/mL (≈ 19.5 µM)
MIC ([14]; Clostridium perfringens, A9635, read-out: minimum inhibitory concentration (MIC)): 3.1 µg/mL (≈ 9.59 µM)
MIC ([15]; Clostridium perfringens, A22787, read-out: minimum inhibitory concentration (MIC)): 6.3 µg/mL (≈ 19.5 µM)
MIC ([16]; Thomasclavelia ramosa, read-out: minimum inhibitory concentration (MIC)): 6.3 µg/mL (≈ 19.5 µM)
MIC [17, 27]: 1.6 µg/mL (≈ 4.95 µM)
MIC ([18]; CUH9, read-out: minimum inhibitory concentration (MIC)): 1.6 µg/mL (≈ 4.95 µM)
MIC [19, 27]: 3.1 µg/mL (≈ 9.59 µM)
MIC [20, 27]: 3.1 µg/mL (≈ 9.59 µM)
MIC [21, 27]: 3.1 µg/mL (≈ 9.59 µM)
MIC [22, 27]: 3.1 µg/mL (≈ 9.59 µM)
MIC [23, 27]: 6.3 µg/mL (≈ 19.5 µM)
MIC ([24]; ATCC8501, read-out: minimum inhibitory concentration (MIC)): 6.3 µg/mL (≈ 19.5 µM)
MIC ([25]; Veillonella parvula, A219141, read-out: minimum inhibitory concentration (MIC)): 1.6 µg/mL (≈ 4.95 µM)
MIC [26, 27]: 3.1 µg/mL (≈ 9.59 µM)
